Data: the NIST ThermoML archive (doi:10.1021/je060271a)

Conditions: 323.15 K, Liquid, Vibrating tube method

CCCCC(=O)OCC(COC(=O)CCCC)(COC(=O)CCCC)COC(=O)CCCC [pentaerythritol tetrapentanoate]
Conditions	mass density [kg/m3]
5507 kPa	998.5
5515.1 kPa	998.5
5521.3 kPa	998.4
5527 kPa	998.5
5546.7 kPa	998.6
5564 kPa	998.6
5581.9 kPa	998.5
5599.5 kPa	998.6
5620.8 kPa	998.5
5638.1 kPa	998.7
5660 kPa	998.6
5678.2 kPa	998.6
5695.6 kPa	998.6
5714.3 kPa	998.7
5736.6 kPa	998.6
5755.1 kPa	998.7
5774.3 kPa	998.6
5797.1 kPa	998.8
5816.3 kPa	998.9
5836 kPa	998.8
5854.9 kPa	998.8
5878.6 kPa	998.8
5898.5 kPa	998.8
5917.1 kPa	998.8
5937.2 kPa	998.9
5961 kPa	998.8
5982 kPa	998.9
6002.4 kPa	998.9
6023.3 kPa	998.8
6048 kPa	998.8
6068.6 kPa	999
6091.7 kPa	998.8
6114.3 kPa	999
6135.5 kPa	998.8
6162.7 kPa	998.9
6183.1 kPa	998.9
6205.3 kPa	999
6226.8 kPa	999.1
6253.6 kPa	999.1
6278.3 kPa	999
6299 kPa	999
6322 kPa	999.1
6349.8 kPa	999.1
6371.6 kPa	999.1
6395.8 kPa	999.1
6420.4 kPa	999
6446 kPa	999.2
6472.8 kPa	999.2
6495.8 kPa	999.3
6521.7 kPa	999.2
6549.3 kPa	999.2
6572.1 kPa	999.2
6596.7 kPa	999.3
6622.6 kPa	999.3
6652.8 kPa	999.2
6676.5 kPa	999.3
6703.4 kPa	999.2
6735.7 kPa	999.4
6761.8 kPa	999.4
6788.6 kPa	999.5
6816.1 kPa	999.4
6841.8 kPa	999.4
6873.6 kPa	999.5
6900.5 kPa	999.4
6928.9 kPa	999.6
6961.3 kPa	999.6
6989.5 kPa	999.5
7017 kPa	999.6
7044.4 kPa	999.4
7079.5 kPa	999.6
7110.4 kPa	999.7
7137.5 kPa	999.7
7169.3 kPa	999.6
7204.5 kPa	999.8
7233.8 kPa	999.7
7265.1 kPa	999.7
7295.5 kPa	999.8
7332.3 kPa	999.8
7362 kPa	999.7
7393.2 kPa	999.8
7425.1 kPa	999.9
7462.4 kPa	999.8
7497 kPa	1000
7529.6 kPa	999.9
7562.2 kPa	999.9
7602.1 kPa	1000
7634.4 kPa	999.9
7668.9 kPa	1000
7702.7 kPa	1000
7742.2 kPa	1000
7778.3 kPa	1000.1
7818.5 kPa	1000.1
7854.9 kPa	1000.1
7890.7 kPa	1000.1
8008.7 kPa	1000.2
8045.6 kPa	1000.3
8085.8 kPa	1000.3
8132.2 kPa	1000.2
8166 kPa	1000.4
8197.3 kPa	1000.4
8234.5 kPa	1000.4
8265.2 kPa	1000.4
8297.6 kPa	1000.5
8334.6 kPa	1000.5
8366.3 kPa	1000.6
8398.2 kPa	1000.5
8437.2 kPa	1000.5
8471.2 kPa	1000.5
8502.6 kPa	1000.5
8536.2 kPa	1000.6
8575.9 kPa	1000.5
8609.5 kPa	1000.6
8644.9 kPa	1000.7
8686.6 kPa	1000.7
8721.6 kPa	1000.7
8763.3 kPa	1000.7
8798.5 kPa	1000.8
8835.2 kPa	1000.8
8871.2 kPa	1000.7
8918.5 kPa	1000.9
8948.2 kPa	1000.9
8992.3 kPa	1000.9
9029 kPa	1000.9
9074.5 kPa	1000.9
9112.8 kPa	1001
9150.4 kPa	1001.1
9188.8 kPa	1001.1
9235.3 kPa	1001
9275.3 kPa	1001.2
9315.5 kPa	1001.1
9364.1 kPa	1001.1
9405.6 kPa	1001.2
9494 kPa	1001.2
9537.2 kPa	1001.2
9589.3 kPa	1001.2
9624.3 kPa	1001.3
9656.6 kPa	1001.3
9695.6 kPa	1001.3
9727.6 kPa	1001.5
9873 kPa	1001.5
9976.5 kPa	1001.6
10018 kPa	1001.6
10129 kPa	1001.8
10165 kPa	1001.7
10208 kPa	1001.8
10280 kPa	1001.7
10325 kPa	1001.8
10362 kPa	1001.9
10400 kPa	1001.9
10447 kPa	1001.9
10486 kPa	1001.9
10527 kPa	1002
10577 kPa	1001.8
10620 kPa	1002.1
10661 kPa	1002
10691 kPa	1002.1
10711 kPa	1002.1
10731 kPa	1002.2
10755 kPa	1002.1
10775 kPa	1002
